The text below walks through data of US8293769B2, “CSF-1R inhibitors, compositions, and methods of use” (Novartis AG, priority 2008, dated 2012).

As usually defined, the inhibition is the share of the control response that was lost under treatment.

The target of assay [1] is T1, cKIT (Homo sapiens, UniProt P10721).
T1 construct: The kinase domain of cKIT was assayed in 50 mM Hepes; purchased Upstate 14-559
As to the kind of experiment: cKIT kinase in vitro biochemical assay (alphascreen). The conditions noted are these: tested at about 1 μM; read-out: CKIT percent inhibition. Here is the method:
(§1) The IC50 values for the inhibition of RTKs were determined in the alphascreen format measuring the inhibition by compound of phosphate transfer to a substrate by the respective enzyme. Briefly, the respective RTK domain purchased as human recombinant protein (cKIT Upstate #14-559, PDGFRb Invitrogen #P3082) were incubated with serial dilutions of compound in the presence of substrate and ATP concentrations within 3 times the Km of the enzyme.
(§2) The kinase domain of cKIT was assayed in 50 mM Hepes, pH=7.5, 5 mM MgCl2, 10 mM MnCl2, 1 mM DTT, 0.1% BSA with 0.06 uM biotinylated peptide substrate (GGLFDDPSYVNVQNL-NH2) and 15 uM ATP (ATP KM apparent=15 uM). The kinase domain of PDGFRβ was assayed in 50 mM Hepes, pH=7.5, 20 mM MgCl2, 1 mM DTT, 0.1% BSA with 0.1 uM biotinylated peptide substrate (GGLFDDPSYVNVQNL-NH2) and 10 uM ATP (ATP KM apparent=25 uM). Reactions were incubated at room temperature for 3 to 4 hr and stopped with buffer (20 mM EDTA, 0.01% Tween-20 for both PDGFRb and cKIT). Alphascreen PY20 beads were added to the stopped cKIT reactions and PY20 Ab/Protein A Alphascreen beads were added to the PDGFRβ stopped reactions. Both reactions were incubated overnight and read on the Alphascreen reader. The concentration of compound for 50% inhibition (IC50) was calculated employing non-linear regression using XL-Fit data analysis software. As a control compound, staurosporine is run in every assay and a Z′>0.5 is required to validate results.
A general note: Bead proximity is the source of the signal in Alpha formats.

The target of assay [2] is T2, cytoplasmic domain of the human CSF-1R (Homo sapiens, UniProt P07333).
T2 construct: Recombinant protein corresponding to the cytoplasmic domain of the human CSF-1R; purchased Invitrogen Corporation, Carlsbad, Calif; PV3249
T2 sequence (P07333 539-972 limits assumed): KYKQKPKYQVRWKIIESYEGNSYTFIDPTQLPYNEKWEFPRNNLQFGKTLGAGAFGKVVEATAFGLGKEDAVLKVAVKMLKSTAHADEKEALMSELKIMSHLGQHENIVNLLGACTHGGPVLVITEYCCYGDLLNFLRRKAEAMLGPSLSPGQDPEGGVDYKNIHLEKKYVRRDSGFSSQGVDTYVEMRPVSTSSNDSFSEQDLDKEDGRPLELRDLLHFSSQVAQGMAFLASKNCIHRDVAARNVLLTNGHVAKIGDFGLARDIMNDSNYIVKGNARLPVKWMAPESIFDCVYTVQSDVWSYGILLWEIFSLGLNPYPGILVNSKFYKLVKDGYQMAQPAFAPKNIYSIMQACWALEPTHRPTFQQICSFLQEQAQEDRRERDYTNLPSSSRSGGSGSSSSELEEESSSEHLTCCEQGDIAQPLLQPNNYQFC
As to the kind of experiment: In vitro kinase assay for CSF-1R (AlphaScreen). The conditions noted are these: tested at about 1 μM; read-out: CSF1RK 1 percent inhibition. The format is biochemical. Here is the method:
The kinase activity of various protein tyrosine kinases can be measured by providing ATP and a suitable peptide or protein tyrosine-containing substrate, and assaying the transfer of phosphate moiety to the tyrosine residue. Recombinant protein corresponding to the cytoplasmic domain of the human CSF-1R was purchased from Invitrogen Corporation, Carlsbad, Calif. U.S.A. (#PV3249). For each assay, test compounds were serially diluted, starting at 25 μM with 3 fold dilutions, in DMSO in 384 well plates then mixed with an appropriate kinase reaction buffer consisting of 50 mM Hepes, 5 mM MgCl2, 10 mM MnCl2, 0.1% BSA, pH 7.5, 1.0 mM dithiothreitol, 0.01% Tween 80 plus 1 μM ATP. Kinase protein and an appropriate biotinylated peptide substrate at 50 nM were added to give a final volume of 20 μL, reactions were incubated for 2 hours at room temperature and stopped by the addition of 10 μL of 45 mM EDTA, 50 mM Hepes pH 7.5. Added to the stopped reaction mix was 30 μL of PT66 Alphascreen beads (Perkin Elmer, Boston, Mass., U.S.A.). The reaction was incubated overnight and read on the Envision (Perkin Elmer). Phosphorylated peptide product was measured with the AlphaScreen system (Perkin Elmer) using acceptor beads coated with anti-phosphotyrosine antibody PT66 and donor beads coated with streptavidin that emit a fluorescent signal at the 520-620 nm emission wave length if in close proximity. The concentration of each compound for 50% inhibition (IC50) was calculated by non-linear regression using XL Fit data analysis software.
CSF-1R kinase was assayed in 50 mM Hepes pH 7.0, 5 mM MgCl2, 10 mM MnCl2, 1 mM DTT, 1 mg/mL BSA, 1.0 μM ATP, and 0.05 μM biotin-GGGGRPRAATF-NH2 (SEQ ID NO:1) peptide substrate. CSF-1R kinase was added at final concentration of 4 nM.

Assay [3] addresses T3, PDGFRb (Homo sapiens, UniProt P09619).
T3 construct: The kinase domain of PDGFRβ was assayed in 50 mM Hepes; purchased Invitrogen P3082
As to the kind of experiment: PDGFRb kinase in vitro biochemical assay (alphascreen). As to conditions: tested at about 1 μM; read-out: PDGF RK BETA percent inhibition. The procedure:
as §1, §2

T3 sequence (P09619 600-962 limits assumed): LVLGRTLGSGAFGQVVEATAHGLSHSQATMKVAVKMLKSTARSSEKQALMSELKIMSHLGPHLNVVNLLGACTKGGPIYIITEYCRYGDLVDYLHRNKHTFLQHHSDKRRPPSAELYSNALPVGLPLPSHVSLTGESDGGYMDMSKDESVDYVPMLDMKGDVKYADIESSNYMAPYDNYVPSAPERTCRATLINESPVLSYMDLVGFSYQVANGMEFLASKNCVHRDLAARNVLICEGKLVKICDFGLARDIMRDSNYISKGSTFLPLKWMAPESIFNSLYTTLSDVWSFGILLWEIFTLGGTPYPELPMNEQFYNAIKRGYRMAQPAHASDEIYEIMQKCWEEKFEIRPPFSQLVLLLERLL
T1 sequence (P10721 589-937 limits assumed): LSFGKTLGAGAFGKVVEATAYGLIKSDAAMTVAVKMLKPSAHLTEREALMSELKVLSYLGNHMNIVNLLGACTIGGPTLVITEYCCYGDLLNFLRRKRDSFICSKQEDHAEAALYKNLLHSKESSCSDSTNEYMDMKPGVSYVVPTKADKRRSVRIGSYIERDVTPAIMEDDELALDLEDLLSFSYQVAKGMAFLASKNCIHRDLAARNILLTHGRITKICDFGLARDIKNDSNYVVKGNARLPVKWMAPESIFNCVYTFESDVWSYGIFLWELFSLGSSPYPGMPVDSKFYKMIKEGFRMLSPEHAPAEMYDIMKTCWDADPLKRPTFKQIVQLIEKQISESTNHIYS

As to `O=[N+]([O-])c1ccc(Oc2ccc3nc(NCC4CCCCC4)sc3c2)cn1` [Compound 71, N-(cyclohexylmethyl)-6-(6-nitropyridin-3-yloxy)benzo [d]thiazol-2-amine], the figures for the inhibition at 1 µM in assay [1], in assay [2] and in assay [3] were 11%, 25% and 1%, respectively.
As for `O[C@@H]1CCCC[C@H]1Nc1nc2ccc(Oc3cncc(-c4ccc(N5CCOCC5)nc4)c3)cc2s1` [Compound 72, (1R,2R)-2-(6-(6′-morpholino-3,3′-bipyridin-5-yloxy)benzo[d]thiazol-2-ylamino)cyclohexanol], the inhibition at 1 µM in assay [1] is 76%; in assay [2] it was 100%; in assay [3] it was 10%.
The corresponding values for `O[C@@H]1CCCC[C@H]1Nc1nc2ccc(Oc3cncc(-c4ccnc(N5CCOCC5)c4F)c3)cc2s1` [Compound 77] are 83%, 100% and 6%.
Consider `O[C@@H]1CCCC[C@H]1Nc1nc2ccc(Oc3cncc(-c4ccn[nH]4)c3)cc2s1` [Compound 78, (1R,2R)-2-(6-(5-(1H-pyrazol-5-yl)pyridin-3-yloxy)benzo [d]thiazol-2-ylamino)cyclohexanol], for which the inhibition at 1 µM in assay [1] came to 88%; in assay [2], 100%; in assay [3], 9%.
As to `O[C@@H]1CCCC[C@H]1Nc1nc2ccc(Oc3cncc(-c4cnn(CC(F)F)c4)c3)cc2s1` [Compound 82, (1R,2R)-2-(6-(5-(1-(2,2-difluoroethyl)-1H-pyrazol-4-yl)pyridin-3-yloxy)benzo[d]thiazol-2-ylamino)cyclohexanol], the figures for the inhibition at 1 µM in assay [1], in assay [2] and in assay [3] were 82%, 100% and 0%, respectively.
As for `O[C@@H]1CCCC[C@H]1Nc1nc2ccc(Oc3cncc(-c4ncco4)c3)cc2s1` [Compound 83, (1R,2R)-2-(6-(5-(oxazol-2-yl)pyridin-3-yloxy)benzo[d]thiazol-2-ylamino) cyclohexanol], the inhibition at 1 µM in assay [1] was found to be 86%; in assay [2] it was 100%; in assay [3], 98%.
For `N#Cc1ccc(Oc2ccc3nc(NCC4CCCCC4)sc3c2)cn1` [Compound 86, 5-(2-(cyclohexylmethylamino)benzo [d]thiazol-6-yloxy) picolinonitrile], the inhibition at 1 µM in assay [1] came out at 19%; in assay [2], 39%; in assay [3], 1%.
The corresponding values for `C[C@H](Nc1nc2ccc(Oc3ccc(C#N)nc3)cc2s1)C1CCCCC1` [Compound 87, (S)-5-(2-(1-cyclohexylethylamino)benzo[d]thiazol-6-yloxy)picolinonitrile] are 16%, 32% and 0%.
Take `N#Cc1ccc(Oc2ccc3nc(N[C@@H]4CCCC[C@H]4O)sc3c2)cn1` [Compound 88, 5-(2-((1R,2R)-2-hydroxycyclohexylamino)benzo[d]thiazol-6-yloxy)picolinonitrile]: the inhibition at 1 µM turned out to be 15% in assay [1], 32% in assay [2] and 0% in assay [3].
For the compound `Nc1ccc(Oc2ccc3nc(NCC4CCCCC4)sc3c2)nn1` [Compound 89, 6-(6-aminopyridazin-3-yloxy)-N-(cyclohexylmethyl)benzo[d]thiazol-2-amine], the inhibition at 1 µM in assay [1] came out at 46%; in assay [2], 75%; in assay [3] it was 9%.
The corresponding values for `Nc1ccc(Oc2ccc3nc(N[C@@H]4CCCC[C@H]4O)sc3c2)nn1` [Compound 90, (1R,2R)-2-(6-(6-aminopyridazin-3-yloxy)benzo[d]thiazol-2-ylamino)cyclohexanol] are 33%, 28% and 87%.
For `Cn1nccc1-c1cncc(Oc2ccc3nc(N[C@@H]4CCCC[C@H]4O)sc3c2)n1` [Compound 91, (1R,2R)-2-(6-(6-(1-methyl-1H-pyrazol-5-yl)pyrazin-2-yloxy)benzo[d]thiazol-2-ylamino) cyclohexanol], the inhibition at 1 µM in assay [1] is 21%; in assay [2], 95%; in assay [3], 14%.
On to `O[C@@H]1CCCC[C@H]1Nc1nc2ccc(Oc3cnc(Cl)c(Br)c3)cc2s1` [Compound 99, (1R,2R)-2-(6-(5-bromo-6-chloropyridin-3-yloxy)benzo[d]thiazol-2-ylamino)cyclohexanol], for which the inhibition at 1 µM in assay [1] was 27%; in assay [2], 83%; in assay [3] it was 21%.
Turning to `C[C@H](Nc1nc2ccc(Oc3ccc(N)nc3)cc2s1)C1CCCCC1` [Compound 100, (S)-6-(6-aminopyridin-3-yloxy)-N-(1-cyclohexylethyl)benzo[d]thiazol-2-amine], the inhibition at 1 µM in assay [1] is 90%; in assay [2] it was 100%; in assay [3] it was 31%.
The corresponding values for `Cn1cc(-c2cc(Oc3ccc4nc(N[C@@H]5CCCC[C@H]5O)sc4c3)cnc2Cl)cn1` [Compound 102, (1R,2R)-2-(6-(6-chloro-5-(1-methyl-1H-pyrazol-4-yl)pyridin-3-yloxy)benzo[d]thiazol-2-ylamino)cyclohexanol] are 11%, 86% and 7%.
The matching figures for `Nc1ccc(-c2cc(Oc3ccc4nc(N[C@@H]5CCCC[C@H]5O)sc4c3)cnc2Cl)cn1` [Compound 104, (1R,2R)-2-(6-(6′-amino-2-chloro-3,3′-bipyridin-5-yloxy)benzo[d]thiazol-2-ylamino)cyclohexanol]: 15%, 86% and 15%.
For the compound `O[C@@H]1CCCC[C@H]1Nc1nc2ccc(Oc3cnc(Cl)c(-c4cccnc4)c3)cc2s1` [Compound 105, (1R,2R)-2-(6-(2-chloro-3,3′-bipyridin-5-yloxy)benzo[d]thiazol-2-ylamino) cyclohexanol], the inhibition at 1 µM was 9% in assay [1], 43% in assay [2] and 9% in assay [3].
With `Cn1cc(-c2cc(Oc3ccc4nc(N[C@@H]5CCCC[C@H]5O)sc4c3)cnc2-c2cnn(C)c2)cn1` [Compound 106, (1R,2R)-2-(6-(5,6-bis(1-methyl-1H-pyrazol-4-yl)pyridin-3-yloxy)benzo[d]thiazol-2-ylamino) cyclohexanol], the inhibition at 1 µM stood at 13% in assay [1], 81% in assay [2] and 18% in assay [3].
